Results taken from patent US7273878B2, “Difluoroalkene derivative, pest control agent containing the same, and intermediate therefor” (Kumiai Chemical Industry Co., Ltd., priority 2001, dated 2007).

Tested on: Nilaparvata lugenis
Assay: Insecticidal test for Nilaparvata lugenis
Type: in vivo
Settings: 144 h, 500 ppm active ingredient (wettable powder), 4-instar larvae on germinated rice paddy, 25° C., after 6 days, read-out: mortality rate
Method: The wettable powder prepared according to the above Preparation Example 2 was diluted with water to a concentration of 500 ppm as a concentration of active ingredient. After soaking the germinated rice paddy in the test solution, the paddy was transferred into a 60 ml volume of plastic cup. Ten (10) heads of 4-instar larvae of Nilaparvata lugenis were inoculated on the paddy and capped, then left at the constant temperature of 25° C. After 6 days from the inoculation, the number of surviving insects was counted, and mortality rate of the insect was calculated according to the following formula 1. mortality rate (%)=[(10−number of surviving insect in the test field)/10]×100 (1)

SMILES	mortality at 500 ppm
CC(CCOC(=O)c1c2c(nn1C)CCC2)=C(F)F [Compound 242, 4,4-difluoro-3-methyl-3-butenyl 2-methyl-2,4,5,6-tetrahydrocyclopentapyrazole-3-carboxylate]	≥ 90%
CC(CCCCOC(=O)c1ccco1)=C(F)F [Compound 9, 6,6-difluoro-5-methyl-5-hexenyl furan-2-carboxylate]	≥ 90%
CC(CCOC(=O)c1ncccc1C(=O)Nc1ccccc1)=C(F)F [Compound 234, 4,4-difluoro-3-methyl-3-butenyl 3-phenylcarbamoyl-pyridine-2-carboxylate]	≥ 90%
CC(CCCCOC(=O)c1nsc2ccccc12)=C(F)F [Compound 45, 6,6-difluoro-5-methyl-5-hexenyl benzo[d]isothiazole-3-carboxylate]	≥ 90%
CC(CCCCOC(=O)c1noc2ccccc12)=C(F)F [Compound 44, 6,6-difluoro-5-methyl-5-hexenyl benzo[d]isoxazole-3-carboxylate]	≥ 90%
CC(CCCCOC(=O)c1nc2ccccc2s1)=C(F)F [Compound 21, 6,6-difluoro-5-methyl-5-hexenyl benzothiazole-2-carboxylate]	≥ 90%
CC(=O)N1CCC(C(=O)OCCCCC(C)=C(F)F)CC1 [Compound 40, 6,6-difluoro-5-methyl-5-hexenyl 1-acetylpiperidine-4-carboxylate]	≥ 90%
CC(CCCCOC(=O)c1ccc2[nH]ccc2c1)=C(F)F [Compound 15, 6,6-difluoro-5-methyl-5-hexenyl 1H-indole-5-carboxylate]	≥ 90%
CCCCOc1cc(C(=O)OCCC(C)=C(F)F)nc(C)n1 [Compound 276, 4,4-difluoro-3-methyl-3-butenyl 6-butoxy-2-methyl-pyrimidine-4-carboxylate]	≥ 90%
CC(CCCCOC(=O)c1cccn1C)=C(F)F [Compound 38, 6,6-difluoro-5-methyl-5-hexenyl 1-methyl-1H-pyrrole-2-carboxylate]	≥ 90%
CC(CCCCOC(=O)c1cnccn1)=C(F)F [Compound 28, 6,6-difluoro-5-methyl-5-hexenyl pyrazine-2-carboxylate]	≥ 90%
CC(CCOC(=O)c1cccn1CC#N)=C(F)F [Compound 282, 4,4-difluoro-3-methyl-3-butenyl 1-cyanomethyl-1H-pyrrole-2-carboxylate]	≥ 90%
CC(CCCCOC(=O)c1csc(-c2ccccc2)n1)=C(F)F [Compound 129, 6,6-difluoro-5-methyl-5-hexenyl 2-phenylthiazole-4-carboxylate]	≥ 90%
CC(CCCCOC(=O)c1nc(C)n(-c2ccccc2)n1)=C(F)F [Compound 47, 6,6-difluoro-5-methyl-5-hexenyl 5-methyl-1-phenyl-1H-[1,2,4]triazole-3-carboxylate]	≥ 90%
CC(CCCCOC(=O)c1cc(Cl)nnc1Cl)=C(F)F [Compound 48, 6,6-difluoro-5-methyl-5-hexenyl 3,6-dichloropyridazine-4-carboxylate]	≥ 90%
CC(CCOC(=O)c1nc(C)cc(-c2ccccc2)n1)=C(F)F [Compound 278, 4,4-difluoro-3-methyl-3-butenyl 4-methyl-6-phenyl-pyrimidine-2-carboxylate]	≥ 90%
CC(CCOC(=O)c1cccn1CC1CC1)=C(F)F [Compound 281, 4,4-difluoro-3-methyl-3-butenyl 1-cyclopropylmethyl-1H-pyrrole-2-carboxylate]	≥ 90%
CC(CCCCOC(=O)c1cnc(-c2ccccc2)s1)=C(F)F [Compound 132, 6,6-difluoro-5-methyl-5-hexenyl 2-phenylthiazole-5-carboxylate]	≥ 90%
CC(CCCCCCOC(=O)c1cc2ccccc2s1)=C(F)F [Compound 10, 8,8-difluoro-7-methyl-7-octenyl benzo[b]thiophene-2-carboxylate]	≥ 90%
